US20240335569A1, “FIBROBLAST ACTIVATION PROTEIN INHIBITORS AND USE THEREOF” (3 B PHARMACEUTICALS GMBH, priority 2021, published 2024)

What was measured:
Recombinant human DPP4 = Recombinant human DPP4 (Homo sapiens (Human), UniProt P27487); assay: DPP4 protease activity assay; format: biochemical
Procedure: The PREP activity assay was performed using the FACS buffer (PBS including 1% FBS, Sigma-Aldrich, Cat #D8537). […] The DPP4 activity assay was performed in DPP assay buffer (25 mM Tris, pH 8.0). […] Four parameter logistic (4PL) curve fitting and pIC50 calculations were performed using ActivityBase software.

HT-29 cells = assay: Stability in the presence of tumor cells (HT-29), FAP IC50 of supernatants; format: in vitro ADME, human; conditions: for pIC50 (incubation in cell medium w/o HT-29) / pIC50 (incubation in the presence of HT-29 cells): 10 μM compound, supernatant tested on recombinant human FAP; for pIC50 (incubation in cell medium w/o HT-29): 24 hours at 37° C. in control wells without cells; for pIC50 (incubation in the presence of HT-29 cells): 24 hours at 37° C. with HT-29 cells
Procedure: Cells were cultured in McCoys's 5A modified medium (Biochrom, #F1015) including 10% fetal bovine serum (FBS), 2 mM L-glutamine, 100 U/ml penicillin and 100 μg/mL streptomycin (growth medium). […] 1 mL of the cell suspension were seeded in 24-well plates and incubated overnight at 37° C. and 5% CO2. The next day, cells were washed twice and growth medium was exchanged against DMEM without phenol red (Biochrom, #F0475) including 2 mM L-glutamine. Test compound was diluted in DMEM without phenol red (Biochrom, #F0475) including 2 mM L-glutamine. 400 μL of a 10 μM solution of the test compound was incubated for 24 hours at 37° C. and 5% CO2 in the presence of cells as well as in control wells (without cells) of the same 24-well plate.
25 μL of a 30 μM substrate solution, diluted in assay buffer, was added. All solutions were equilibrated at 37° C. prior to use. […] RFU/sec was calculated by SoftMax Pro software and plotted against test compound concentration. Four parameter logistic (4PL) curve fitting and IC50/pIC50 calculations were performed using GraphPad Prism 9.1 software.
The stability of exemplary compounds was further assessed in the presence of a variety of human cell lines from different tissue origins. […] Compounds were diluted in DMEM without phenol red (Biochrom, #F0475) including 2 mM L-glutamine. 400 μL of a 10 μM solution of the test compound was incubated for 24 hours at 37° C. and 5% CO2 in the presence of cells as well as in control wells (without cells) of the same 24-well plate. IC50/pIC50 determination of the supernatants was performed as described above.

[1] = biological target: FAP-expressing human WI-38 fibroblasts (Homo sapiens (Human), UniProt Q12884); assay: FACS binding assay (competitive, Cy5-labeled 3BP-2935); conditions: FAP-expressing WI-38 fibroblasts
Sequence of FAP-expressing human WI-38 fibroblasts (Q12884 whole entry): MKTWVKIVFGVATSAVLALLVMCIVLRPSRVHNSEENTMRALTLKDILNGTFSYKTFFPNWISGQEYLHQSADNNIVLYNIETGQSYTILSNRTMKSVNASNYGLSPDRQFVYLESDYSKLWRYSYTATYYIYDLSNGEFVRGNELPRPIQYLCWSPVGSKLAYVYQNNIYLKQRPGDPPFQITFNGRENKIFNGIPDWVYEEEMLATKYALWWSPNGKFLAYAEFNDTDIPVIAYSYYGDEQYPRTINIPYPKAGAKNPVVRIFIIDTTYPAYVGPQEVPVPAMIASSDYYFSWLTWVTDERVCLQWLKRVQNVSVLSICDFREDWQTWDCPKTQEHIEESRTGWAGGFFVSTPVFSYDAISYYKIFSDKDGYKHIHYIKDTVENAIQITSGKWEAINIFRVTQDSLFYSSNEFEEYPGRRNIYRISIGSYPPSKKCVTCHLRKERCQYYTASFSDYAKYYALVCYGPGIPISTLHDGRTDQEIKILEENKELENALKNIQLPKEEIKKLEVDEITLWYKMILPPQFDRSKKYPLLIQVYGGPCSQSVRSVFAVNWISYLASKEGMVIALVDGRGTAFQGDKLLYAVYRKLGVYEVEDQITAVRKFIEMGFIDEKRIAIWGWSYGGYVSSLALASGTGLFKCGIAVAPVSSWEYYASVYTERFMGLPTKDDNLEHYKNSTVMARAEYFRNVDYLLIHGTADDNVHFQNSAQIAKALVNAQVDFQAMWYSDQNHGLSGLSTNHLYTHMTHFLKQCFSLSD
Procedure: In order to determine binding of compounds according to the present invention to FAP-expressing cells, a competitive FACS binding assay was established. […] Cells were diluted in FACS buffer to a final concentration of 100.000 cells per ml and 200 μl of the cell suspension are transferred to a u-shaped non-binding 96-well plate (Greiner). […] Cell were washed twice with FACS buffer (see above) and resuspended in 200 μl FACS buffer. Cells were analyzed in an Attune NxT flow cytometer (Thermo Fisher Scientific). Median fluorescence intensities (Cy5 channel) were calculated by Attune NxT software and plotted against test compound concentrations. Four parameter logistic (4PL) curve fitting and pIC50 calculations were performed using ActivityBase software.

Human recombinant FAP [2] = biological target: T1, Human recombinant FAP (Homo sapiens (Human), UniProt Q12884); assay: FAP protease activity assay (human), FRET-based; format: biochemical; conditions: recombinant human FAP, FRET protease activity
Procedure: In order to determine the inhibitory activity a FRET-based FAP protease activity assay was established.
Four parameter logistic (4PL) curve fitting and pIC50 calculations were performed using ActivityBase software (IDBS).
Target sequence in this assay (Q12884 26-760): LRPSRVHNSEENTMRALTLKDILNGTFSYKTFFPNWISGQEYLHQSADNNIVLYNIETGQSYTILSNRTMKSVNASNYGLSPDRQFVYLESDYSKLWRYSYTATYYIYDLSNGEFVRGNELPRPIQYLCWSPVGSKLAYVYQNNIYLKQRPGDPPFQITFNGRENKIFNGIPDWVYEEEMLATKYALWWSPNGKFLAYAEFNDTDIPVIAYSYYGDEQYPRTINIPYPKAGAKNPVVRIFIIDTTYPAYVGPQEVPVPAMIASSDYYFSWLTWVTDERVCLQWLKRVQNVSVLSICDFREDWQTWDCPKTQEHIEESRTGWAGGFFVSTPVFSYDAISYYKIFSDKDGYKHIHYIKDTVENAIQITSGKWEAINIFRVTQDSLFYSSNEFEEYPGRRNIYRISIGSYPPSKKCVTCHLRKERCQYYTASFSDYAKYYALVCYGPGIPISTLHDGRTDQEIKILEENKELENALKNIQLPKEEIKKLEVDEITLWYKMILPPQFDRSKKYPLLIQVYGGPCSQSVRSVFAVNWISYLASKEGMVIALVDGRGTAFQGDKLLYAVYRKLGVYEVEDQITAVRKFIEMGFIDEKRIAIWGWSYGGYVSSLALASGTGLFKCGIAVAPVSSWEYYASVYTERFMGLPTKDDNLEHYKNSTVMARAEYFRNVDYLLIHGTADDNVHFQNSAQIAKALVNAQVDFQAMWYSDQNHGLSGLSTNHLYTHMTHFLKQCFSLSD

Human recombinant FAP [3] = biological target: T1, Human recombinant FAP; assay: Surface plasmon resonance assay (Biacore T200, SCK); format: binding; conditions: for HL [min] (Biacore): SPR dissociation half-life; for pKD (Biacore): SPR
Procedure: Surface plasmon resonance studies were performed using a Biacore™ T200 SPR system (Cytiva, formerly GE Healthcare). Briefly, polarized light is directed towards a gold-labeled sensor surface, and minimum intensity reflected light is detected. The angle of reflected light changes as molecules bind and dissociate. […] Test compounds are contacted with the loaded surface, and a real-time interaction profile with the FAP ligand is recorded in a sensorgram. In real-time, the association and dissociation of a binding interaction is measured, enabling calculation of association and dissociation rate constants and the corresponding affinity constants. Importantly, a background response is generated due to the difference in the refractive indices of the running and sample buffers, as well as unspecific binding of the test compounds to the flow cell surface. This background is measured and subtracted by running the sample on a control flow cell coated with the same density of capture antibody in the absence of immobilized FAP. Furthermore, baseline drift correction of the binding data is performed, which is caused by slow dissociation of the captured FAP from the immobilized antibody. This drift is measured by injecting running buffer through a flow cell with the antibody and FAP immobilized to the sensor surface.
Biacore™ CM5 sensor chips were used. […] A 150 μL aliquot was transferred into plastic vials and placed into the sample rack of the Biacore™ T200 instrument. Amine Coupling Kit Reagent solutions were transferred into plastic vials and placed into the sample rack: 90 μL of 0.4 M 1-ethyl-3-(3-dimethylaminopropyl) carbodiimide (EDC), and 90 μL of 0.1 M N-hydroxysuccinimide (NHS). A 130 μL aliquot of 1 M ethanolamine-HCl, pH 8.5, was transferred into plastic vials and placed into the sample rack. The Biacore™ liquid system was set-up as follows: Separate bottles containing distilled water (1 L), Running Buffer (500 mL), as well as an empty bottle for waste were placed onto the buffer tray. A preinstalled program for immobilization was used, with an immobilization level of 7000 RU. Immobilization was performed at 25° C. The immobilization procedure of anti-FAP antibodies was performed, as described in the Table 4.
Human recombinant FAP was diluted in Running Buffer to a final concentration of 20 μg/mL. A 100 μL aliquot of human FAP-Working-Solution was transferred into plastic vials and placed into a sample rack. A 0.5 mM Compound-Stock-Solution was prepared by dissolving each compound in DMSO. For each test compound, Compound-Stock-Solutions were diluted in Running Buffer (HBST) at 500 nM and further diluted with HBST-DMSO Buffer (0.1% DMSO). SPR binding analyses for binary complexes were performed in SCK mode at 25° C. Following three SCK measurements, a baseline drift was assessed by injecting running buffer through a flow cell, with the antibody and FAP immobilized to the sensor surface.
For each test compound, SPR raw data in the form of resonance units (RU) were plotted as sensorgrams using the Biacore™ T200 control software. The signal from the blank sensorgram was subtracted from that of the test compound sensorgram (blank corrected). The blank corrected sensorgram was corrected for baseline drift by subtracting the sensorgram of a SCK run without the test compound (running buffer only). The association rate (kon), dissociation rate (koff), dissociation constant (KD), and t1/2 were calculated from Blank-normalized SPR data using the 1:1 Langmuir binding model from the Biacore™ T200 evaluation software. Raw data and fit results were imported as text files in IDBS. The pKD value (negative decadic logarithm of dissociation constant) was calculated in the IDBS excel template.
Target sequence in this assay (Q12884 whole entry): as the sequence (Q12884 whole entry) above

Sequence of Recombinant human DPP4 (P27487 whole entry): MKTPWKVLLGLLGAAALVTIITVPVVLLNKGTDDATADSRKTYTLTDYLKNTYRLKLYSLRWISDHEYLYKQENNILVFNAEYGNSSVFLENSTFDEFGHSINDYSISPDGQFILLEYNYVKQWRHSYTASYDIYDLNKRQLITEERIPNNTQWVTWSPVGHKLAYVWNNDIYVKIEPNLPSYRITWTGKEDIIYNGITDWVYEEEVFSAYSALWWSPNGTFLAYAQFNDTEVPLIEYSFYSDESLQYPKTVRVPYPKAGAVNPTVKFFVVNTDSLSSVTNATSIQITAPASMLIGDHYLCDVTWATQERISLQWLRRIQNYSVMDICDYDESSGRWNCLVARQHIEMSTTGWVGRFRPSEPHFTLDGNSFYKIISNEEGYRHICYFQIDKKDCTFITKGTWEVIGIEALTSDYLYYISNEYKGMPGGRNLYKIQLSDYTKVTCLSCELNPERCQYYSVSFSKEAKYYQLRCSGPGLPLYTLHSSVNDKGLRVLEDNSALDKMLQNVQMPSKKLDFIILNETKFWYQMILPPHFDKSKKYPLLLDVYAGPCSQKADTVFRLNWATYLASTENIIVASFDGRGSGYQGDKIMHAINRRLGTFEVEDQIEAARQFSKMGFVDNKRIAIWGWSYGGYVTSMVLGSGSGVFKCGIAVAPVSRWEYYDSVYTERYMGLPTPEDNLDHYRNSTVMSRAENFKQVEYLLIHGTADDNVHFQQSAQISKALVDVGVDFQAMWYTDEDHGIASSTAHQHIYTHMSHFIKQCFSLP

SMILES	Residual activity after incubation with HT-29 cells for 24 hours (%) (HT-29 cells)	pIC50 (FACS) [1]	pIC50 (Activity) (Human recombinant FAP [2])	HL [min] (Biacore) (Human recombinant FAP [3])	also measured
N#C[C@@H]1CCCN1C(=O)CNC(=O)c1ccnc2ccccc12 [Compound 3BP-2762]	63				pIC50 (DPP4) (Recombinant human DPP4): <6; pIC50 (incubation in cell medium w/o HT-29) (HT-29 cells): 8.4
Cn1ncnc1C(=O)[C@@H]1CCCN1C(=O)CNC(=O)c1ccnc2ccccc12 [Compound 3BP-3207]		<6	6.5		
N#C[C@@H]1CC(F)(F)CN1C(=O)CNC(=O)c1ccnc2ccccc12 [Compound 3BP-3232]	13				pIC50 (incubation in the presence of HT-29 cells) (HT-29 cells): 8.0
CS(=O)(=O)c1ccc(-c2ccc3c(C(=O)NCC(=O)N4CC(F)(F)C[C@H]4C#N)ccnc3c2)cc1 [Compound 3BP-3236]				37	
O=C(O)CN1CCN(CC(=O)O)CCN(CC(=O)N2CCN(CCCOc3ccc4nccc(C(=O)NCC(=O)N5CC(F)(F)C[C@H]5C(=O)c5nc6ccccc6o5)c4c3)CC2)CCN(CC(=O)O)CC1 [Compound 3BP-3412]	>95			57	pIC50 (incubation in the presence of HT-29 cells) (HT-29 cells): 8.6
N#C[C@@H]1CC(F)(F)CN1C(=O)CNC(=O)c1ccnc2ccc(-c3ccc(S(=O)(=O)CCCNC(=O)CN4CCN(CC(=O)O)CCN(CC(=O)O)CCN(CC(=O)O)CC4)cc3)cc12 [Compound 3BP-3467]	13			>150	pKD (Biacore) (Human recombinant FAP [3]): >10.5; pIC50 (incubation in cell medium w/o HT-29) (HT-29 cells): 9.3; pIC50 (incubation in the presence of HT-29 cells) (HT-29 cells): 8.4
CC(C)(C)OC(=O)N1CC[N+]([O-])(CCCOc2ccc3nccc(C(=O)NCC(=O)N4CC(F)(F)C[C@H]4C#N)c3c2)CC1 [Compound 3BP-3577]		8.6	9		
CC(C)(C)OC(=O)N1CC[N+]([O-])(CCCOc2ccc3c(c2)c(C(=O)NCC(=O)N2CC(F)(F)C[C@H]2C#N)cc[n+]3[O-])CC1 [Compound 3BP-3578]		8	8.6		

The next lines start with results.

Residual activity after incubation with HT-29 cells for 24 hours (%) (HT-29 cells)	pIC50 (FACS) [1]	pIC50 (Activity) (Human recombinant FAP [2])	HL [min] (Biacore) (Human recombinant FAP [3])	SMILES	also measured
	8	8.6		CC(C)(C)OC(=O)N1CCN(CCCOc2ccc3c(c2)c(C(=O)NCC(=O)N2CC(F)(F)C[C@H]2C#N)cc[n+]3[O-])CC1 [Compound 3BP-3579]	
	8.4	8.8		CC(C)(C)OC(=O)N1CCN(CCCOc2ccc3nccc(C(=O)NCC(=O)N4CC(F)(F)C[C@H]4C#N)c3c2)CC1 [Compound 3BP-3580]	
			>150	N#C[C@@H]1CC(F)(F)CN1C(=O)CNC(=O)c1ccnc2ccc(-c3ccc(C(=O)NCCCNC(=O)CN4CCN(CC(=O)O)CCN(CC(=O)O)CCN(CC(=O)O)CC4)cc3)cc12 [Compound 3BP-3621]	pKD (Biacore) (Human recombinant FAP [3]): >10.5
			>150	N#C[C@@H]1CC(F)(F)CN1C(=O)CNC(=O)c1ccnc2ccc(-c3ccc(C(=O)NCCN4CCN(C(=O)CN5CCN(CC(=O)O)CCN(CC(=O)O)CCN(CC(=O)O)CC5)CC4)cc3)cc12 [Compound 3BP-3631]	pKD (Biacore) (Human recombinant FAP [3]): >10.5
